# Where two headings read alike, the source gives them in different places.
# Tests used:
# DNMT3B/DNMT3L (h) = DNMT3B/DNMT3L (h) (Homo sapiens, UniProt Q9UBC3); assay: Epigenetic enzyme assay, DNA methyltransferases (DNMTs); assay type: biochemical
# [1] = test system: HUVEC endothelium cells (normal cell line); assay: In vitro cell viability assay (intracellular ATP, 72 hour); assay type: cell-based; details: 10 μM; for % Cell growth: HUVEC, Endothelium (Normal)
# ATAD2A (h) bromodomain = target: T1, ATAD2A (h) bromodomain (Homo sapiens, UniProt Q6PL18); assay: Epigenetic binding assay, Bromodomain; details: 10 μM; read-out: % Inhibition of Control Specific Binding
# T1 construct: Bromodomain
# T1 sequence (Q6PL18 980-1092 limits assumed): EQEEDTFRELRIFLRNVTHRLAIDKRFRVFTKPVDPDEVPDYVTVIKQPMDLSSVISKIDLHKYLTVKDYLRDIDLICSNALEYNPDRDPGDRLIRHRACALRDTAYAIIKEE
# SP140 (h) bromodomain = target: T2, SP140 (h) bromodomain (Homo sapiens, UniProt Q13342); assay: Epigenetic binding assay, Bromodomain; details: 10 μM; read-out: % Inhibition of Control Specific Binding
# T2 construct: SP140 (h) bromodomain
# Chemokine CX3CR1 = target: T3, Chemokine CX3CR1 (Homo sapiens, UniProt P49238); assay: Chemokine CX3CR1 radio ligand binding; details: assay year 2015
# T3 construct: expressed in transfected cells; host or cells: Chem-1 cells
# T3 sequence (P49238 1-355): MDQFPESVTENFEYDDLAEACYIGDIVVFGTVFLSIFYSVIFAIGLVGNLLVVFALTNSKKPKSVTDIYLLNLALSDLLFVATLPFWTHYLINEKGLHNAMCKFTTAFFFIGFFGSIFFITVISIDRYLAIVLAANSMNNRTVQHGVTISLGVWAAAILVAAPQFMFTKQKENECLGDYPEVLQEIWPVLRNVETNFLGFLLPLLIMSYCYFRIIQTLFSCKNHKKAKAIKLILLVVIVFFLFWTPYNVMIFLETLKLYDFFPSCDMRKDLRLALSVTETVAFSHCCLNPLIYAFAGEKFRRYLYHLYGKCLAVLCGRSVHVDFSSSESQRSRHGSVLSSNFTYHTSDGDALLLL
# Experimental: (§1) The in vitro pharmacological studies were conducted by Eurofins PanLab (Taiwan) using the parameters shown in Table 13 with respect to appropriate literature references.
# H3K27 ac = assay: Cell-based detection methyl modifications; details: read-out: % Inhibition of Control Values
# HL-60 leukemia cells = assay: In vitro cell viability assay (intracellular ATP, 72 hour); assay type: cell-based; details: HL-60 (TB) (Leukemia); 10 μM
# Phospholipase sPLA2-V = target: T4, Phospholipase sPLA2-V (Homo sapiens, UniProt P39877); assay: Phospholipase sPLA2-V; assay type: biochemical; details: assay year 2015, read-out: % Control Response
# T4 construct: host or cells: E. coli
# T4 sequence (P39877 21-138): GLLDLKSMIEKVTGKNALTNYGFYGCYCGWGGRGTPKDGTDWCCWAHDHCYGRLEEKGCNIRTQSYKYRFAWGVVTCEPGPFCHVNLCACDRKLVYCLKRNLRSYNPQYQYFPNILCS
# Experimental: as §1
# UTX (h) = UTX (h) (Homo sapiens, UniProt O15550); assay: Epigenetic enzyme assay, Demethylases (KDMs); assay type: biochemical; details: 10 μM; read-out: % Inhibition of Control Values
# [2] = test system: 43 cancer cell lines and one normal cell line; assay: In vitro cell viability assay (intracellular ATP, 72 hour); assay type: cell-based; details: 10 μM
# L3MBTL1 MBT domain = assay: Epigenetic binding assay, MBT domain; details: 10 μM
# CYP3A = CYP3A (Homo sapiens, UniProt P08684); assay: Cytochrome P450 Inhibition (CYP panel); assay type: in vitro ADME; details: probe testosterone; for inhibition at 1 µM: human liver microsomes
# [3] = LL/2 (Non-Small Cell Lung Cancer)
# [4] = NCI-H460 (Non-Small Cell Lung Cancer)
# [5] = PC-6 (Non-Small Cell Lung Cancer)
# CYP3A, sequence (P08684 2-503): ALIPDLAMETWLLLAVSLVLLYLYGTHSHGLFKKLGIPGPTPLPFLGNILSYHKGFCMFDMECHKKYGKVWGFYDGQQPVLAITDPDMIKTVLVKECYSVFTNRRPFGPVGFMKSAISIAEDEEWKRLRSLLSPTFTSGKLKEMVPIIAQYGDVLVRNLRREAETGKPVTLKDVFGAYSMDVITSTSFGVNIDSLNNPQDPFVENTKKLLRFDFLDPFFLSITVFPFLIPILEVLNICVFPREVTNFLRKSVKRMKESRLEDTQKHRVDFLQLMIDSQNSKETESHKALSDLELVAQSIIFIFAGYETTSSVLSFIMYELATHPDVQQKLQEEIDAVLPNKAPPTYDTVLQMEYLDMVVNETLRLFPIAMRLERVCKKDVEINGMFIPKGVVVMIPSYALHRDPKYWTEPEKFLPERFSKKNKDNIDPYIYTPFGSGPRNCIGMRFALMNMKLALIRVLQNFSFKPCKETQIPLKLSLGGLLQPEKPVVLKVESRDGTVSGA
# UTX (h), sequence (O15550 whole entry): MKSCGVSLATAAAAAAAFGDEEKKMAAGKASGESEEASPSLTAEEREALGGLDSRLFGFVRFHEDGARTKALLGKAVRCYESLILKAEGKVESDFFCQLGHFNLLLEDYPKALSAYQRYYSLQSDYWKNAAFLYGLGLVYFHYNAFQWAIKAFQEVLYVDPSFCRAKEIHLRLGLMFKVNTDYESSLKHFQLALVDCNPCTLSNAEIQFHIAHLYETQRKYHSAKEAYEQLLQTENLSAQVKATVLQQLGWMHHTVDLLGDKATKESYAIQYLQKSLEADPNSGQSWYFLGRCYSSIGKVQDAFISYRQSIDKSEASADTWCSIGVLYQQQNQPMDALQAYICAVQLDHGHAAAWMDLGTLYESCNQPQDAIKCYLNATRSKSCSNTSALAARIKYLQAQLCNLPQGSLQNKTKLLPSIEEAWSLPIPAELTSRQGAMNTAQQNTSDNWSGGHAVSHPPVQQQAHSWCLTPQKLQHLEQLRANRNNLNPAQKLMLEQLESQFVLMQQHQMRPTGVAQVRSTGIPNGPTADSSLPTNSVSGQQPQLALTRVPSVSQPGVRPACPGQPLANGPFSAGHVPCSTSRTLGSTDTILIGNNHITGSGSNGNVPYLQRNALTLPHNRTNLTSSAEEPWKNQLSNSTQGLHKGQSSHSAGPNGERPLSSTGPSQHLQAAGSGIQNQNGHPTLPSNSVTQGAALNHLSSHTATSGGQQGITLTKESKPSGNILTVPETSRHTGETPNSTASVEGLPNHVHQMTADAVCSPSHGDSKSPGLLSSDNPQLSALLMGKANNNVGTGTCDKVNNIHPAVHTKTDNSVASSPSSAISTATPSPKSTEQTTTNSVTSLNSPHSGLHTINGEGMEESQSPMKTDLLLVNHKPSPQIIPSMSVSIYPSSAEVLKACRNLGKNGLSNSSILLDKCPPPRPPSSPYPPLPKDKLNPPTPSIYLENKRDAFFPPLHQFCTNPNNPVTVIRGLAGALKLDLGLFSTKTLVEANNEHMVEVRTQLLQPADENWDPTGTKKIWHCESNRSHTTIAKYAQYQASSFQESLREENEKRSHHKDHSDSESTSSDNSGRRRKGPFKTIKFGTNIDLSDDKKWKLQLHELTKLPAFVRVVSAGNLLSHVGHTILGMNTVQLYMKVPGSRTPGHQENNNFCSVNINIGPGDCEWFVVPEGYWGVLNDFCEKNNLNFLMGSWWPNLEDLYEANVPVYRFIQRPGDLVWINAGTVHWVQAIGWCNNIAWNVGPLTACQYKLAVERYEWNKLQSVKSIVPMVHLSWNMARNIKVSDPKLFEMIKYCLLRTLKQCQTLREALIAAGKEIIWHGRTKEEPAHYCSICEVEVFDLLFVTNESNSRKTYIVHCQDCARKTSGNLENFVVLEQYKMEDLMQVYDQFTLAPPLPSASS
# T2 sequence (Q13342 754-857 limits assumed): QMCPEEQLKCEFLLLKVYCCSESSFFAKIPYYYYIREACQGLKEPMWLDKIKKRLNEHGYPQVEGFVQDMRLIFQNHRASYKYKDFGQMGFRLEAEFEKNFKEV
compound,measurement,setting,value
"CC(C)=CCC[C@@H]1COc2c(C)cc(O)c3c2[C@H]1CC[C@H]3C [Compound 3, 5,18-epoxy-8-hydroxyserrulat-14-ene]",inhibition at 10 µM,"DNMT3B/DNMT3L (h); 10 μM, read-out: % Inhibition of Control Values",-20%
same,% Cell growth,[1],91%
same,inhibition at 10 µM,ATAD2A (h) bromodomain,9%
same,inhibition at 10 µM,SP140 (h) bromodomain,1%
same,percent of control response at 10 µM,Chemokine CX3CR1,7%
same,inhibition at 10 µM,H3K27 ac,-11%
same,% Cell growth,HL-60 leukemia cells,138%
same,remaining activity at 10 µM,Phospholipase sPLA2-V,0%
same,inhibition at 10 µM,UTX (h),27%
same,effect on cell viability,[2]; all 44 cell lines,no significant effect
same,% Cell growth,[2]; 4T1 (Breast Cancer),99%
same,% Cell growth,[2]; A375 (Skin),100%
same,% Cell growth,[2]; A-431 (Skin),102%
same,% Cell growth,[2]; A-498 (Kidney Cancer),92%
same,% Cell growth,[2]; ACHN (Kidney Cancer),105%
same,% Cell growth,[2]; B16-F0 (Melanoma),116%
same,% Cell growth,[2]; BT474 (Breast Cancer),108%
same,% Cell growth,[2]; CT26.WT (Colon Cancer),103%
same,% Cell growth,[2]; DLD-1 (Colon Cancer),101%
same,% Cell growth,[2]; H33HJ-JA1 (Lymphoma),90%
same,% Cell growth,[2]; HC-4 (Liver Cancer),105%
same,% Cell growth,[2]; HCT-15 (Colon Cancer),116%
same,% Cell growth,[2]; HCT-116 (Colon Cancer),99%
same,% Cell growth,[2]; HT-29 (Colon Cancer),101%
same,% Cell growth,[2]; Hep3B (Liver Cancer),84%
same,% Cell growth,[2]; HepG2 (Liver Cancer),103%
same,% Cell growth,[2]; K-562 (Leukemia),93%
same,% Cell growth,[2]; KATO III (Stomach),105%
same,% Cell growth,[2]; [3],111%
same,% Cell growth,[2]; LNCaP (Prostrate Cancer),84%
same,% Cell growth,[2]; MCF7 (Breast Cancer),112%
same,% Cell growth,[2]; MCF-7 AdrR (Breast Cancer),101%
same,% Cell growth,[2]; MDA-MB-231 (Breast Cancer),100%
same,% Cell growth,[2]; MDA-MB-468 (Breast Cancer),85%
same,% Cell growth,[2]; MES-SA (Uterus),94%
same,% Cell growth,[2]; MIA PaCa-2 (Pancreas),106%
same,% Cell growth,[2]; MOLT-4 (Leukemia),77%
same,% Cell growth,[2]; MV-411 (Leukemia),76%
same,% Cell growth,[2]; [4],100%
same,% Cell growth,[2]; OVCAR-3 (Ovarian Cancer),86%
same,% Cell growth,[2]; PANC-1 (Pancreas),116%
same,% Cell growth,[2]; PC-3 (Prostrate Cancer),64%
same,% Cell growth,[2]; [5],96%
same,% Cell growth,[2]; Ramos (Lymphoma),129%
same,% Cell growth,[2]; SK-MEL-5 (Melanoma),118%
same,% Cell growth,[2]; SK-N-MC (Brain),82%
same,% Cell growth,[2]; SK-OV-3 (Ovarian Cancer),98%
same,% Cell growth,[2]; SW-620 (Colon Cancer),107%
same,% Cell growth,[2]; T-47D (Breast Cancer),119%
same,% Cell growth,[2]; U937 (Lymphoma),105%
same,% Cell growth,[2]; U-87 MG (Brain),111%
same,% Inhibition of Control Specific Binding,L3MBTL1 MBT domain,59%
"CC(C)=CCC[C@H](C)[C@@H]1CC[C@@H](C)c2c1cc(C)c(O)c2O [Compound 4, 7,8-dihydroxyserrulat-14-ene]",reduction in the growth,[1],no significant reduction
same,% Cell growth,[1],37%
same,inhibition at 1 µM,CYP3A; read-out: % inhibition,7 to 20%
same,inhibition at 1 µM,"CYP3A; CYP3A (testosterone sub.), Human liver microsomes, read-out: % Inhibition of Control Values",20%
same,inhibition at 10 µM,"CYP3A; liver microsomes, CYP3A (testosterone sub.), Human liver microsomes, 10 μM, read-out: % Inhibition of Control Values",48%
same,% Cell growth,HL-60 leukemia cells,−83%
same,reduction in cell viability,"[2]; Ramos, H33HJ-JA1, HL-60 (TB), MOLT-4, MV-411, SK-N-MC",−82 to −94%
same,% Cell growth,[2]; 4T1 (Breast Cancer),26%
same,% Cell growth,[2]; A375 (Skin),65%
same,% Cell growth,[2]; A549/ATCC (Non-Small Cell Lung Cancer),93%
same,% Cell growth,[2]; A-431 (Skin),107%
same,% Cell growth,[2]; A-498 (Kidney Cancer),89%
same,% Cell growth,[2]; ACHN (Kidney Cancer),105%
same,% Cell growth,[2]; B16-F0 (Melanoma),56%
same,% Cell growth,[2]; BT474 (Breast Cancer),64%
same,% Cell growth,[2]; CT26.WT (Colon Cancer),33%
same,% Cell growth,[2]; DLD-1 (Colon Cancer),68%
same,% Cell growth,[2]; H33HJ-JA1 (Lymphoma),−87%
same,% Cell growth,[2]; HC-4 (Liver Cancer),91%
same,% Cell growth,[2]; HCT-15 (Colon Cancer),69%
same,% Cell growth,[2]; HCT-116 (Colon Cancer),64%
same,% Cell growth,[2]; HT-29 (Colon Cancer),91%
same,% Cell growth,[2]; Hep3B (Liver Cancer),93%
same,% Cell growth,[2]; HepG2 (Liver Cancer),90%
same,% Cell growth,[2]; K-562 (Leukemia),60%
same,% Cell growth,[2]; KATO III (Stomach),83%
same,% Cell growth,[2]; [3],98%
same,% Cell growth,[2]; LNCaP (Prostrate Cancer),56%
same,% Cell growth,[2]; MCF7 (Breast Cancer),77%
same,% Cell growth,[2]; MCF-7 AdrR (Breast Cancer),77%
same,% Cell growth,[2]; MDA-MB-231 (Breast Cancer),84%
same,% Cell growth,[2]; MDA-MB-468 (Breast Cancer),52%
same,% Cell growth,[2]; MES-SA (Uterus),68%
same,% Cell growth,[2]; MIA PaCa-2 (Pancreas),92%
same,% Cell growth,[2]; MOLT-4 (Leukemia),−93%
same,% Cell growth,[2]; MV-411 (Leukemia),−94%
same,% Cell growth,[2]; [4],93%
same,% Cell growth,[2]; OVCAR-3 (Ovarian Cancer),60%
same,% Cell growth,[2]; PANC-1 (Pancreas),82%
same,% Cell growth,[2]; [5],4%
same,% Cell growth,[2]; Ramos (Lymphoma),−82%
same,% Cell growth,[2]; SK-MEL-5 (Melanoma),88%
same,% Cell growth,[2]; SK-N-MC (Brain),−92%
same,% Cell growth,[2]; SK-OV-3 (Ovarian Cancer),74%
same,% Cell growth,[2]; SW-620 (Colon Cancer),74%
same,% Cell growth,[2]; T-47D (Breast Cancer),47%
same,% Cell growth,[2]; U937 (Lymphoma),20%
same,% Cell growth,[2]; U-87 MG (Brain),81%
Nc1ncnc2c1ncn2[C@@H]1O[C@H](CSCC[C@H](N)C(=O)O)[C@@H](O)[C@H]1O [SAH],IC50,DNMT3B/DNMT3L (h); read-out: Reference IC50,45 nM

# — patent publication US11331299B2, “Medicinal use of serrulatane diterpenes” (The University of Sydney, priority 2016, dated 2022)
